The values that follow come from PubChem BioAssay (NCI).

Holding throughout (assay): NCI-60 cell line screen, 48 h
For assay [1], the system named is HL-60(TB) leukemia.
The test system of assay [2] is K-562 leukemia.
For assay [3], the system named is IGROV1 ovarian.
Assay [4] concerns EKVX NSCLC.
Assay [5] relates to MOLT-4 leukemia.
For assay [6], the system named is HCC-2998 colon.
Assay [7] has as its system SK-MEL-2 melanoma.
In assay [8] the test system is DU-145 prostate.
In assay [9] the test system is BT-549 breast.
The subject of assay [10] is T-47D breast.

“And” between values parts separate entries of the source, which are not always exact repeats. Equal entries are not always repeated.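 Method: 48-hour compound exposure of cells in 96-well plates, five concentrations, linear interpolation of endpoints. GI50: concentration for 50% inhibition of growth. The concentration for full growth arrest is given as TGI.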

In the case of `CC(=O)OCC1OC(n2cc([N+](=O)[O-])c(=O)[nH]c2=O)C(OC(C)=O)C(OC(C)=O)C1OC(C)=O` (centres undefined), the TGI in assay [1], in assay [2], in assay [3], in assay [4], in assay [5] and in assay [6] was above 100 µM each time. For the same compound, the TGI in [7] was above 100 µM.

Regarding `O=C(CNc1ccccc1Cl)Nn1c(-c2ccccc2)nc2ccccc2c1=O`, the TGI in assay [1] is 65.7 µM; in assay [2], 97.2 µM; in assay [3], 75.4 µM; in [8], above 100 µM; in assay [4] it was 36.8 µM; in assay [5], 57.7 µM. In addition, the TGI in [6] stood at 39.8 µM; in assay [9], 25.5 µM.

Take `CSc1cc(Cl)c(C)cc1S(=O)(=O)NC(=O)NNc1ccc(Cl)cc1`: the TGI in assay [2], in [3], in assay [8], in assay [4], in assay [5] and in assay [10] was above 100 µM throughout. The TGI in assay [6] and in assay [7] was above 100 µM throughout.

As for `CC(=O)N(C(C)=O)C1=C2c3ccccc3N(S(=O)(=O)c3ccccc3)C2n2c(=O)n(-c3ccccc3)c(=O)n2C1` (centres undefined), the TGI is 63.3 µM in assay [1]; above 100 µM in [2]; above 100 µM in assay [3]; 61.9 µM in assay [4]; 62.4 µM in assay [6]; 47.5 µM in assay [7].

`CCOC(=O)c1c(-c2ccc(OC)cc2)c(C#N)c(=S)n(C2OC(COC(C)=O)C(OC(C)=O)C(OC(C)=O)C2OC(C)=O)c1C` (centres undefined): the TGI in assay [1], in [2], in assay [3], in [8], in assay [4] and in assay [5] was above 100 µM each time. Further, the TGI in [10] and in [6] was above 100 µM each time.

Regarding `C=CCNC(=S)/N=C/c1c(O)c2ccccc2oc1=O`, the TGI in [1], in assay [2], in [3], in [4], in assay [5] and in assay [6] was above 100 µM in each case. In [7], this compound displayed a TGI above 100 µM.

As to `Cc1cn(C2OC(C)(CO)C(O)C2O)c(=O)[nH]c1=O` (centres undefined), the TGI in [2], in [3], in assay [5], in assay [6] and in assay [7] was above 100 µM in each case.

As for `COc1cc(NS(C)(=O)=O)ccc1N1Cc2cnc3ccc4[nH]c(C)cc1c4c23`, the TGI in assay [1], in assay [2], in assay [3], in assay [8], in assay [4] and in assay [5] was above 100 µM throughout. Besides, the TGI in [6], in assay [9] and in assay [7] was above 100 µM each time.

For the compound `N#C/C(=C\c1cc(Br)c(O)c(Br)c1)c1cccnc1`, the TGI in assay [1] is above 100 µM; in assay [2], above 100 µM; in [3] it was above 100 µM; in [8], above 100 µM; in assay [4], 53.3 µM; in assay [5] it was above 100 µM. In addition, the TGI is above 100 µM in [6], 56.9 µM in [9] and 44.4 µM in [7].

Take `N=S(c1ccccc1)c1ccccc1[N+](=O)[O-]` (centres undefined): the TGI in assay [1] came out at 36.5 µM; in [2], 45 µM; in [3], 32.9 µM; in [4] it was 38.5 µM; in [5], 64.3 µM; in assay [6], 33.4 µM. Also, the TGI in [7] turned out to be 67.7 µM.

As to `O=C1CN2C(c3ccccc3)=NN(c3ccc([N+](=O)[O-])cc3)C2(c2ccccc2)c2cc(Cl)ccc2N1CC1CC1` (centres undefined), the TGI in assay [2], in assay [3], in assay [8], in assay [4], in assay [5] and in assay [6] was above 100 µM in each case. Also, the TGI in assay [9] is above 100 µM.

Regarding `COc1cc(C2CC(C)(Nc3ccccc3)Oc3cc4c(cc32)OCO4)cc(OC)c1OC` (centres undefined), the TGI in [2] is above 100 µM; in [3], above 59.8 µM; in assay [8] it was 6.13 µM; in assay [4] it was above 100 µM; in assay [5], above 31.6 µM; in assay [6], 3.98 µM. In addition, the TGI in assay [9] is above 100 µM; in [7], above 29.4 µM.

Turning to `Cc1cc(=O)c2c([nH]1)NS(=O)(=O)NC2=O`, the TGI in [1], in assay [2], in assay [3], in [4], in assay [5] and in [6] was above 100 µM throughout. In assay [7], this compound displayed a TGI above 100 µM.

As to `O=C(/C=C/c1ccsc1)c1ccsc1`, the TGI was 40.6 µM in assay [1]; 94.6 µM in assay [3]; above 100 µM in [8]; above 100 µM in [4]; 44.7 µM in assay [5]; 92.2 µM in assay [10]. Also, the TGI in [6] was 35.6 µM; in [7], above 100 µM.

Turning to `BrC/C=C/C[P+](c1ccccc1)(c1ccccc1)c1ccccc1`, the TGI in [1] is 39.2 µM; in assay [2], above 100 µM; in assay [3] it was above 100 µM; in assay [5], above 100 µM; in assay [6] it was above 100 µM; in assay [7] it was 25.7 µM.

In the case of `CC[C@H]1CN2CCc3cc(OC)c(OC)cc3[C@@H]2C[C@@H]1C[C@H]1NCCc2cc(OC)c(OC)cc21`, the TGI in assay [2] was 0.0932 µM; in assay [3], 0.0935 µM and 0.277 µM; in assay [8], 0.0643 µM; in assay [4] it was 0.151 µM and 0.144 µM; in [10], 0.0887 µM; in assay [6], 0.0943 µM and 0.0555 µM. The TGI in [9] was 0.658 µM; in [7], 0.111 µM and 0.17 µM.

Turning to `Cc1cc2[nH]c3[nH]c(=O)[nH]c(=O)c3c2cc1C`, the TGI in [3], in assay [8], in [4], in [10], in assay [6] and in assay [9] was above 100 µM throughout. In [7], this compound came in with a TGI above 100 µM.

Turning to `CC(=O)O[C@]12CCCCCC1C1(O)C(O)CCC[C@H]12` (some centres undefined), the TGI in assay [1], in assay [2], in assay [4], in [5] and in assay [7] was above 100 µM throughout.

As to `CN(C)c1nc(=NCc2ccccc2)ss1`, the TGI in [1] was above 8.45 µM; in [2], above 10 µM; in assay [3], above 10 µM; in assay [8], above 10 µM; in assay [4] it was above 10 µM; in [5], above 6.19 µM. Besides, the TGI in assay [10] and in [6] was above 10 µM in each case.

With `O=C(NC(Cc1ccc(I)cc1)C(=O)O)c1ccc(I)cc1` (centres undefined), the TGI was above 100 µM in [1]; above 100 µM in assay [2]; above 47.6 µM in [3]; above 83.6 µM in assay [4]; above 100 µM in assay [5]; above 77.3 µM in assay [6]. The TGI in assay [7] was above 100 µM.

Turning to `COC(=O)c1c2c(cc3c1CC1(C3)Cc3cc4c(c(C(=O)OC)c3C1)CCCC4)CCCC2`, the TGI is 74.5 µM in [1]; above 100 µM in assay [2]; above 100 µM in assay [3]; above 100 µM in assay [4]; above 100 µM in [5]; above 100 µM in assay [10]. For the same compound, the values for the TGI in assay [6] and in assay [7] were above 100 µM and 5.18 µM, respectively.

As to `O=C1C[C@H](Sc2ccccc2)C2(OCCO2)[C@@H](Sc2ccccc2)C1`, the TGI in [2] is 0.673 µM; in assay [3] it was 3.49 µM; in [8], 14.1 µM; in assay [4], 17.1 µM; in [10], above 43.5 µM; in assay [6], 6.42 µM. Also, the TGI in [9] turned out to be 5.41 µM; in assay [7], 26.3 µM.

Consider `COCOc1ccc(Cn2c(=O)n(C)c(=O)c3c2ncn3C)cc1[N+](=O)[O-]`, for which the TGI in assay [1], in [2], in assay [3], in [4], in assay [5] and in assay [6] was above 100 µM in each case.

With `C=C[C@@H]1C(CO)=CCC2[C@H]1CCC1C(C)(C)C(=O)CC[C@]21C` (some centres undefined), the TGI in assay [1], in [2], in [3], in assay [8], in assay [4] and in assay [5] was above 100 µM each time. The TGI in assay [10], in assay [6] and in [7] was above 100 µM each time.

With `c1ccc2c(c1)NC(C1OC3CCCN3C1C1Nc3ccccc3S1)S2` (centres undefined), the TGI in assay [1] is 46.7 µM; in [2], above 100 µM; in assay [3], above 100 µM; in assay [8], above 100 µM; in assay [4], above 100 µM; in assay [5] it was above 100 µM. In addition, the TGI in assay [6] and in [9] was above 100 µM each time.

For the compound `COc1cc([N+](=O)[O-])c(OC)cc1-c1nc2sc(Cl)cn2c1/C=N/Nc1ccccn1`, the GI50 in [2] was above 50 µM; in [3] it was above 50 µM; in [4], above 50 µM; in assay [10], 20.6 µM; in [9], 15.5 µM; in assay [7], above 50 µM. Also, the TGI in [2] is above 50 µM; in assay [3] it was above 50 µM; in assay [4], above 50 µM; in [10] it was above 50 µM; in assay [9], 38.7 µM; in [7], above 50 µM.

With `CO[C@]12CC(=O)C3(C(C[C@H]4CC5CC=C6C[C@@H](OC(C)=O)CC[C@]6(OC(C)=O)C5C[C@@]43C)C1)C1C[C@H]3[C@@H]4CC=C5C[C@@H](OC(C)=O)CC[C@]5(OC(C)=O)[C@H]4CC[C@]3(C)C12` (some centres undefined), the TGI in [1] is above 100 µM; in assay [2], above 100 µM; in assay [3], 42.8 µM; in [8], 41.4 µM; in assay [4] it was 54.9 µM; in assay [5] it was 63.3 µM. In addition, the TGI came to 33.4 µM in [10], 41.6 µM in assay [6] and 41.1 µM in [7].

For `CC1(C)N=C(C(N)=O)c2ncn(CCCO)c2N1`, the TGI in assay [1], in [2], in assay [3], in assay [8], in [4] and in [10] was above 100 µM in each case. In addition, the TGI in [6] was above 100 µM.

In the case of `Cc1c2c(n(CCc3ccc(Cl)cc3)c1C)NN=C(C#N)S2(=O)=O`, the TGI in [2], in assay [3], in [8], in assay [4], in [5] and in assay [10] was above 100 µM in each case. Further, the TGI in assay [6] and in [7] was above 100 µM in each case.

As to `CC12CC(=O)C3C(C(=O)C1)C32C` (centres undefined), the TGI in assay [2], in assay [3], in assay [8], in assay [4], in [5] and in assay [6] was above 100 µM throughout. The TGI in [9] and in assay [7] was above 100 µM each time.

For `CCCCC1c2c([nH]c3ccccc23)C2C(=O)N(c3ccc(OC)cc3)C(=O)C2C1CCC` (centres undefined), the TGI in assay [1] is 5.45 µM; in [2], 7.43 µM; in [3], above 10 µM; in assay [8], above 10 µM; in [4], above 10 µM; in [5] it was 7.97 µM. Further, the TGI in assay [10], in [6] and in assay [7] was above 10 µM in each case.

On to `CC(C(=O)n1nnc2ccccc21)N(c1ccccc1)c1ccccc1` (centres undefined), for which the TGI in assay [1], in assay [2], in assay [3], in assay [4], in assay [5] and in [6] was above 100 µM throughout. The same compound gave a TGI in assay [7] above 100 µM.
